Reference: BindingDB's records for doi:10.1021/np9704922 (University of Naples Federico II, 1998)

Experiment: Inhibition of human synovial secretory PLA2

IC50: 3.8 µM
SMILES: CC1(C)CCC[C@]2(C)[C@H]3CC[C@@H]4[C@H](O)O[C@@H](C5=CC(=O)OC5O)C[C@H]4[C@]3(C)CC[C@@H]12 (stereo partly specified) [Petrosaspongiolide P]
